Data taken from patent EP4703358A1, “BENZO SIX-MEMBERED HETEROCYCLIC GSPT1 PROTEIN DEGRADATION AGENT AND USE THEREOF” (China Pharmaceutical University, priority 2023, dated 2024).
Where two headings read alike, the source gives them in different places.

How the values were obtained:
KG-1 cells = experiment: Antiproliferative activity against KG-1 cells (CCK8); type: cell-based; conditions: Homo sapiens, 72 hours
Description: KG-1 cells in the logarithmic growth phase were diluted in a culture medium (RPMI + 10% FBS) and plated onto 96-well plates at 5000 cells/well, and the plates were incubated in an incubator at 37 °C with 5% CO2 for 24 hours. 10 mM stock solutions of the test compounds of the present disclosure in DMSO were prepared and diluted with the culture medium to set 9 concentration gradients. Three replicate wells were set for each concentration. After compound addition, the plates were incubated in an incubator at 37 °C with 5% CO2 for 72 hours. The cell proliferation was assessed using the CCK8 method. The cell growth inhibition IC50 values of the compounds were determined using an enzyme labeling method. The IC50 values were calculated using GraphPad Prism 7 software.
The antiproliferative activity of the compounds against KG-1 cells is shown in Table 2, where A represents IC50 < 1 nM, B represents 1 ≤ IC50 < 10 nM, C represents 10 nM ≤ IC50 < 100 nM, D represents 100 nM ≤ IC50 < 1000 nM, and E represents IC50 ≥ 1000 nM. Table 2. The antiproliferative activity of compounds against KG-1 cells

[1] = Metabolic stability in in vitro rat liver microsomes; conditions: for half-life / microsomal CLint: rat
Description: (§3) 10 mM stock solutions of the test compounds in DMSO were prepared, diluted with acetonitrile and then with PBS, and vortexed, with the DMSO content controlled at 0.1%. The dilute working solutions (10 µL) were incubated with 65 µL of a liver microsome system (30 µL of 100 mM PBS, 25 µL of 20 mM MgCl2, and 10 µL of 5 mg/mL RLMs) and preheated at 37 °C for 5 min. 25 µL of 4 mM NADPH was added to start a reaction. Samples were taken at different time points (0 min, 5 min, 15 min, 30 min, 60 min, and 120 min), and an acetonitrile solution containing an internal standard was added to stop the reaction. After vortexing and centrifugation, the supernatants were collected and analyzed by LC-MS/MS, and the half-lives and clearance rates were calculated.

MOLM-13 = experiment: Antiproliferative activity against tumor cells (CCK8), MOLM-13; type: cell-based; conditions: Homo sapiens, MOLM-13 cells, 72 hours
Description: (§1) U937, MOLM-13, and MV4-11 cells (ATCC) in the logarithmic growth phase were separately diluted in a culture medium and plated onto 96-well plates at 5000 cells/well, and the plates were incubated in an incubator at 37 °C with 5% CO2 for 24 hours. 10 mM stock solutions of the compounds in DMSO were prepared and diluted with the culture medium to set 9 concentration gradients. Three replicate wells were set for each concentration. After compound addition, the plates were incubated in an incubator at 37 °C with 5% CO2 for 72 hours. The cell proliferation was assessed using the CCK8 method. The cell growth inhibition IC50 values of the compounds were determined using an enzyme labeling method. The IC50 values were calculated using GraphPad Prism 7 software.
(§2) The antiproliferative activity of the compounds against the tumor cells is shown in Table 3, where A represents IC50 < 1 nM, B represents 1 ≤ IC50 < 10 nM, C represents 10 nM ≤ IC50 < 100 nM, D represents 100 nM ≤ IC50 < 1000 nM, and E represents IC50 ≥ 1000 nM. Table 3. The antiproliferative activity of compounds against tumor cells

[2] = In vivo pharmacokinetic study in rats; conditions: rat; for AUC(0-inf) / AUC(0-t) / C0 / Vd / clearance / half-life / Cmax / Tmax: male, SD, plasma; for F: PO 10mg/kg; for exposure level relative to CC-90009: administered orally
Description: (§4) Sample collection and preparation: After SPF SD rats (male, 210-230 g, 42-48 days, RILD Liver) in a good growth state were dosed intravenously at 2 mg/kg and orally at 10 mg/kg, blood samples were collected via the orbit at different blood collection time points and transferred to centrifuge tubes containing an anticoagulant; the intravenous blood collection time points were 0.08 hours, 0.25 hours, 0.5 hours, 1 hour, 2 hours, 4 hours, 6 hours, 8 hours, and 24 hours, and the oral blood collection time points were 0.25 hours, 0.5 hours, 1 hour, 2 hours, 4 hours, 6 hours, 8 hours, and 24 hours. The blood samples were immediately centrifuged at 4 °C and 8000 rpm for 10 minutes, and the plasma was collected and stored in an ultra-low-temperature freezer at -80 °C until it was analyzed by LC-MS/MS. Pharmacokinetic data analysis: Pharmacokinetic parameters of the compounds were calculated using pharmacokinetic software in a non-compartmental model. The peak plasma concentration (Cmax) and the time to reach the peak plasma concentration (Tmax) were taken as observation values. Parameters such as the half-life T1/2, the areas under the plasma concentration-time curve AUClast and AUCinf, the apparent volume of distribution Vss, and the clearance rate CL were determined through regression analysis of the linear terminal portion of the logarithmic plasma concentration-time curve and the linear trapezoidal rule.

GSPT1 protein = target: T1, GSPT1 protein (Homo sapiens, UniProt P15170+Q96SW2); experiment: Degradation of GSPT1 in KG-1 cells (Western blot); type: cell-based; design: percent GSPT1 degradation: dose or concentration left out as unconfirmed; conditions: for percent GSPT1 degradation at 0.2 µM: compound concentration 200 nM
T1 construct: host or cells: KG-1 cells
Description: KG-1 cells (ATCC) were grown in an IMDM culture medium (containing 20% FBS). After centrifugation and counting, the cell concentration was adjusted. The cells were plated onto 6-well plates at 10^6 cells/well, with 1350 µL per well. 150 µL of DMSO and the test compounds of the present disclosure (compound concentration: 200 nM) were added. The plates were incubated in an incubator at 37 °C with 5% CO2 for 4 hours. The cells were centrifuged, and the culture medium was discarded. PBS was added to wash the cells and then discarded. Whole cell lysates were prepared using a protease inhibitor cocktail (100×, Fude Biological), a protein phosphatase inhibitor cocktail (100×, Fude Biological), SuperNuclease (Beyotime), and a high-intensity RIPA lysis buffer (Thermo Fisher) and placed on ice for 30 minutes. After centrifugation, the cell debris precipitates were discarded, and the whole cell lysate supernatants were collected and transferred to new centrifuge tubes. After a BCA protein assay, samples were prepared using a 5× loading buffer (Thermo Fisher). The samples were subjected to protein electrophoresis separation in a 4-20% precast gel (SDS-PAGE gel), transferred to a PVDF membrane, then blocked with 5% NFDM/TBST at room temperature for 1 hour, incubated overnight with primary antibodies at 4 °C, and incubated with a secondary antibody at room temperature for 2 hours the next day. Signals were detected using a MINICHEMITM imaging system.
Primary antibodies: • Anti-GSPT1: Abcam ab234433 • Anti-beta actin: Fude Biological FD0060
Secondary antibody: Anti-rabbit peroxidase-linked secondary antibody: Fude Biological FDG007
The degradation effects of the compounds on GSPT1 protein are shown in Table 1, where A represents a GSPT1 protein degradation percentage of no less than 80%, B represents a degradation percentage of less than 80% but no less than 50%, C represents a degradation percentage of less than 50% but no less than 25%, and D represents a degradation percentage of less than 25%. Table 1. The degradation of GSPT1 protein by compounds

U937 = experiment: Antiproliferative activity against tumor cells (CCK8), U937; type: cell-based; conditions: Homo sapiens, U-937, 72 hours
Description: as §1, §2

MV4-11 = experiment: Antiproliferative activity against tumor cells (CCK8), MV4-11; type: cell-based; conditions: Homo sapiens, MV4-11 cells, 72 hours
Description: as §1, §2

[3] = male, SD, rat, in vivo, po, 10 mg/kg
Description: as §4

in vivo = conditions: male, SD, rat
Description: as §4

in vitro = conditions: rat, microsomes
Description: as §3

[4] = test system: human leukemia cells MV411; experiment: In vivo pharmacodynamic study in MV411 acute myeloid leukemia xenograft mouse model; design: species or system BABL/c Nude mouse; conditions: for weight loss in mice: once daily by oral gavage
Description: The human leukemia cells MV411 (Cell Bank, Chinese Academy of Sciences) used in this experiment were cultured in an IMDM culture medium supplemented with 10% FBS in an incubator containing CO2 at 37 °C. Before the cells were continuously sub-cultured to the tenth generation, MV411 cells in the logarithmic growth phase were used, and the cell concentration was adjusted to 1 × 10^8 cells/mL with a serum-free culture medium. Each BABL/c Nude mouse (Jiangsu GemPharmatech Co., Ltd., female, 4-6 weeks old, 14-16 g) was inoculated with 100 µL of the cell suspension by subcutaneous injection on the right dorsal side (near the axilla) under sterile conditions. When the mean tumor volume of the tumor-bearing mice reached approximately 100 mm^3, the mice were randomly divided into groups, with the tumor volume in each group being roughly the same. The day of grouping and administration was defined as day 0. The animals in each treatment group were given a compound once daily by oral gavage at 15 mg/kg, 30 mg/kg, or 60 mg/kg. The body weight and tumor volume of the animals were measured every other day.
Experimental indicator: The anti-tumor efficacy of the compounds was evaluated using the relative tumor growth inhibition rate (TGI). Tumor weight TGI (%) = {1 - [(final average tumor weight of experimental group)/(final average tumor weight of control group of tumor-bearing mice without administration)]} × 100%. Tumor volume TGI (%) = [1 - relative tumor volume of experimental group/relative tumor volume of control group of tumor-bearing mice without administration] × 100%.

T1 sequence (P15170 whole entry): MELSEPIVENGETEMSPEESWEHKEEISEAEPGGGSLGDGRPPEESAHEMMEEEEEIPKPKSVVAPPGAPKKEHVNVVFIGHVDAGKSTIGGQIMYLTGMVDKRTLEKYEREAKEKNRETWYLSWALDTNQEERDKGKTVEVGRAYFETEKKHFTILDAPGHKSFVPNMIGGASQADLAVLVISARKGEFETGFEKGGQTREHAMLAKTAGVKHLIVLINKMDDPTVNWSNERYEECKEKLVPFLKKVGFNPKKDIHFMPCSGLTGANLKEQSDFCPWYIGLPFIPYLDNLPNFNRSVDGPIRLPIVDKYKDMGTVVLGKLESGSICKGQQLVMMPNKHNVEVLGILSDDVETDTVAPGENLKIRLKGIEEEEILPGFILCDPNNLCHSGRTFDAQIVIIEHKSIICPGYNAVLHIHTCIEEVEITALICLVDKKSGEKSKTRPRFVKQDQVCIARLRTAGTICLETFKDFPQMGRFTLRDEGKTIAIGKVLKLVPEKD
T1 sequence (Q96SW2 whole entry): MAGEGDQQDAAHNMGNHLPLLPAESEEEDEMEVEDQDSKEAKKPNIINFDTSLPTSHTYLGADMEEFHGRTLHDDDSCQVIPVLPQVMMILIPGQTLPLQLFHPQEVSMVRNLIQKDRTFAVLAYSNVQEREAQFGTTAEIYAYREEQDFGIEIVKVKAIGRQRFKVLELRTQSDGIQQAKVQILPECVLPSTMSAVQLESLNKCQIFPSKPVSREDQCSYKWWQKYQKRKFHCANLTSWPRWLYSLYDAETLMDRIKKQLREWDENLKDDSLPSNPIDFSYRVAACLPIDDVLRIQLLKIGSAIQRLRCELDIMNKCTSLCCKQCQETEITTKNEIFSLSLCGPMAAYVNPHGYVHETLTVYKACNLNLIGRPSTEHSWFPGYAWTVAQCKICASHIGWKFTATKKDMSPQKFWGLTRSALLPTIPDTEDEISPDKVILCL
T1 sequence (Q16531 whole entry partner): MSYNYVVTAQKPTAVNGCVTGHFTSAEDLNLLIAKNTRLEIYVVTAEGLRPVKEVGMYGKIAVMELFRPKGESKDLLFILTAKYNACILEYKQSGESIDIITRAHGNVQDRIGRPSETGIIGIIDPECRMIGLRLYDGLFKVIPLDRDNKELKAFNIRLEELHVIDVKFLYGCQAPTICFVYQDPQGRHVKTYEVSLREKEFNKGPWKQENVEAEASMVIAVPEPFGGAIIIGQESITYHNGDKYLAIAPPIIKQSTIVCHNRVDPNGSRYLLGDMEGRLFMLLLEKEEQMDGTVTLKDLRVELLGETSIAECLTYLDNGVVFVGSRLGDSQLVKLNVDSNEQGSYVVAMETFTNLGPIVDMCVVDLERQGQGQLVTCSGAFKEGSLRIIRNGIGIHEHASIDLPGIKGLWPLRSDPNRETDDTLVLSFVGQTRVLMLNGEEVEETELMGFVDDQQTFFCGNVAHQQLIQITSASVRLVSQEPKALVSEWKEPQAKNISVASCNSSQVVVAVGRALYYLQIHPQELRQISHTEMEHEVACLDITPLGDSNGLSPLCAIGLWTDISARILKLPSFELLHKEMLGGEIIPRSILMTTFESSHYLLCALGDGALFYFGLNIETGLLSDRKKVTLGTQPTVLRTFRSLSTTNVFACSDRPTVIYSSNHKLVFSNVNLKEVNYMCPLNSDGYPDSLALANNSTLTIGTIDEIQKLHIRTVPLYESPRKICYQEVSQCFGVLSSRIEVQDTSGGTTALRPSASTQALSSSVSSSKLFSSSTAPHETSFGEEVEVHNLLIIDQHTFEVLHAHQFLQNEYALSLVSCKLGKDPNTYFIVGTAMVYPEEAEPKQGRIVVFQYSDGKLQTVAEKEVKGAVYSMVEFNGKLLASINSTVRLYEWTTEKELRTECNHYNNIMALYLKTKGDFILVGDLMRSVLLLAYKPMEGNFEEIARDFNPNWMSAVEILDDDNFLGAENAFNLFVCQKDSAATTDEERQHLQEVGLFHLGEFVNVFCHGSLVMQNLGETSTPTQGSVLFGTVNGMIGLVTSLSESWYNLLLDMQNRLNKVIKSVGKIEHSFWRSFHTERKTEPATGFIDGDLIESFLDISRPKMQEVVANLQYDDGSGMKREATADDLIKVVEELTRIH

half-life [1] [h]	microsomal CLint [1] [µL/min/mg]	IC50 (MOLM-13) [nM]	AUC(0-inf) ([2]; iv, 2 mg/kg) [ng·h/mL]	AUC(0-t) ([2]; iv, 2 mg/kg) [ng·h/mL]	C0 ([2]; iv, 2 mg/kg) [ng/mL]	Vd ([2]; iv, 2 mg/kg) [L/kg]	clearance ([2]; iv, 2 mg/kg) [mL/min/kg]	half-life ([2]; iv, 2 mg/kg) [h]	AUC(0-inf) ([2]; po, 10 mg/kg) [ng·h/mL]	AUC(0-t) ([2]; po, 10 mg/kg) [ng·h/mL]	Cmax ([2]; po, 10 mg/kg) [ng/mL]	Tmax ([2]; po, 10 mg/kg) [h]	half-life ([2]; po, 10 mg/kg) [h]	F [2] [%]	percent GSPT1 degradation at 0.2 µM (GSPT1 protein; KG-1 cells, 4 hours) [%]	IC50 (U937) [nM]	IC50 (MV4-11) [nM]	Structure (SMILES)	IC50 (KG-1 cells) [nM]	exposure level relative to CC-90009 [2]	further results
6.17	3.75	10 to 100	1920 ± 267	1900 ± 270	3840 ± 226	0.92 ± 0.07	17.6 ± 2.6	1.38 ± 0.14	1850 ± 330	1810 ± 343	619 ± 42	0.75 ± 0.43	2.69 ± 1.13	19.3±3.4	> 80	1 to 10	10 to 100	O=C1CCC(N2Cc3cc(CNC(=O)C4=Cc5ccccc5OC4)ccc3C2=O)C(=O)N1 (centres unmarked) [Compound A-1, N-((2-(2,6-Dioxopiperidin-3-yl)-1-oxoisoindolin-5-yl)methyl)-2H-chromene-3-carboxamide]	10 to 100	–	–
0.735	31.4	1 to 10	–	–	–	–	–	–	–	–	–	–	–	–	> 80	1 to 10	1 to 10	O=C1CCC(N2Cc3cc(CNC(=O)C4COc5ccccc5C4)ccc3C2=O)C(=O)N1 (centres unmarked) [Compound B-1, N-((2-(2,6-Dioxopiperidin-3-yl)-1-oxoisoindolin-5-yl)methyl)chromane-3-carboxamide]	10 to 100	–	–
4.67	4.95	10 to 100	–	–	–	–	–	–	–	–	–	–	–	–	> 80	10 to 100	10 to 100	O=C1CCC(N2Cc3cc(CNC(=O)C4=Cc5cc(F)ccc5OC4)ccc3C2=O)C(=O)N1 (centres unmarked) [Compound A-3, N-((2-(2,6-Dioxopiperidin-3-yl)-1-oxoisoindolin-5-yl)methyl)-6-fluoro-2H-chromene-3-carboxamide]	10 to 100	–	–
3.11	7.43	–	17300 ± 1470	17200 ± 1500	32100 ± 1550	0.14	1.9 ± 0.1	1.37 ± 0.04	7190	8380 ± 1280	2810 ± 1530	0.66 ± 0.28	1.71	9.8±1.5	> 80	–	–	O=C1CCC(N2Cc3c(ccc(CNC(=O)C4=Cc5cc(OC(F)(F)F)ccc5OC4)c3F)C2=O)C(=O)N1 (centres unmarked) [Compound A-42, N-((2-(2,6-Dioxopiperidin-3-yl)-4-fluoro-1-oxoisoindolin-5-yl)methyl)-6-(trifluoromethoxy)-2H-chromene-3-carboxamide]	1 to 10	four times	in vitro rat liver microsome metabolic half-life relative to CC-90009 ([1]; ratio to the clinical drug CC-90009): more than 2 times; plasma drug exposure level relative to CC-90009 ([2]; intravenous injection): fourteen times; tumor volume TGI ([4]; 60 mg/kg once daily by oral gavage): 100%; weight loss in mice [4]: no significant weight loss

Structure (SMILES)	half-life [1] [h]	microsomal CLint [1] [µL/min/mg]	IC50 (MOLM-13) [nM]	AUC(0-inf) ([2]; iv, 2 mg/kg) [ng·h/mL]	AUC(0-t) ([2]; iv, 2 mg/kg) [ng·h/mL]	C0 ([2]; iv, 2 mg/kg) [ng/mL]	Vd ([2]; iv, 2 mg/kg) [L/kg]	clearance ([2]; iv, 2 mg/kg) [mL/min/kg]	half-life ([2]; iv, 2 mg/kg) [h]	AUC(0-inf) ([2]; po, 10 mg/kg) [ng·h/mL]	AUC(0-t) ([2]; po, 10 mg/kg) [ng·h/mL]	Cmax ([2]; po, 10 mg/kg) [ng/mL]	Tmax ([2]; po, 10 mg/kg) [h]	half-life ([2]; po, 10 mg/kg) [h]	F [2] [%]	percent GSPT1 degradation at 0.2 µM (GSPT1 protein; KG-1 cells, 4 hours) [%]	IC50 (U937) [nM]	IC50 (MV4-11) [nM]	IC50 (KG-1 cells) [nM]	exposure level relative to CC-90009 [2]	further results
O=C1CCC(N2Cc3cc(CNC(=O)C(F)(F)c4ccc(Cl)cc4)ccc3C2=O)C(=O)N1 (centres unmarked) [CC-90009]	–	–	100 to 1000	–	–	–	–	–	–	–	–	–	–	–	–	50 to 80	10 to 100	10 to 100	10 to 100	–	F [3]: 31.2±9.1%; AUC(0-inf) (in vivo; iv, 2 mg/kg): 1200 ± 304 ng·h/mL; AUC(0-t) (in vivo; iv, 2 mg/kg): 1200 ng·h/mL; C0 (in vivo; iv, 2 mg/kg): 1870 ± 492 ng/mL; Vd (in vivo; iv, 2 mg/kg): 2.85 ± 0.63 L/kg; clearance (in vivo; iv, 2 mg/kg): 28.8 ± 6.4 mL/min/kg; half-life (in vivo; iv, 2 mg/kg): 1.44 ± 0.26 h; AUC(0-inf) (in vivo; po, 10 mg/kg): 1896 ± 14 ng·h/mL; AUC(0-t) (in vivo; po, 10 mg/kg): 1892 ± 12 ng·h/mL; Cmax (in vivo; po, 10 mg/kg): 616 ± 53 ng/mL; Tmax (in vivo; po, 10 mg/kg): 1.5 ± 0.71 h; half-life (in vivo; po, 10 mg/kg): 2.91 ± 0.28 h; half-life (in vitro): 1.29 h; microsomal CLint (in vitro): 17.9 µL/min/mg
O=C1CCC(N2Cc3cc(CNC(=O)C4=Cc5cc(OC(F)(F)F)ccc5OC4)ccc3C2=O)C(=O)N1 (centres unmarked) [Compound A-10, N-((2-(2,6-Dioxopiperidin-3-yl)-1-oxoisoindolin-5-yl)methyl)-6-trifluoromethoxy-2H-chromene-3-carboxamide]	2.77	8.35	1 to 10	4350 ± 1200	4310 ± 1200	16700 ± 4330	0.42 ± 0.13	8.1 ± 2.5	1.53 ± 0.29	4980 ± 2740	4950 ± 2770	3460 ± 1540	0.33 ± 0.14	3.03 ± 0.63	22.9±12.6	–	1 to 10	10 to 100	10 to 100	nearly three times	clearance rate relative to CC-90009 ([2]; intravenous injection): one third; plasma drug exposure level relative to CC-90009 ([2]; intravenous injection): nearly four times; percent GSPT1 degradation (GSPT1 protein; KG-1, 4 h, read-out: GSPT1 degradation): > 80%; degradation of GSPT1 in KG-1 and MV4-11 cells (GSPT1 protein; KG-1 and MV4-11 cells, FIGs. 1 and 2): concentration-dependent and time-dependent; percentage of degradation of GSPT1 protein (GSPT1 protein; KG-1 cells, 200 nM, 4 hours): higher than 80%; weight loss in mice [4]: no significant weight loss
